Reference: the NIST ThermoML archive (doi:10.1016/j.jct.2005.09.003)

Test: xn = mol fraction of the nth substance listed
Settings: Liquid

CCCCCCCl [1-chlorohexane] + CCCCCCCC
mass density [kg/m3]
Settings	x2 = 0	x2 = 0.1016	x2 = 0.1996	x2 = 0.3153	x2 = 0.3948	x2 = 0.4862	x2 = 0.5938	x2 = 0.6966	x2 = 0.794	x2 = 0.9001
298.15 K, 100 kPa	873.42	852.6	833.25	811.26	796.69	780.47	762.03	745.09	729.61	713.36
298.15 K, 2130 kPa	874.73	854.08	834.69	812.8	798.13	781.96	763.56	746.66	731.16	714.88
298.15 K, 4150 kPa	876.45	855.81	836.43	814.54	799.88	783.71	765.29	748.4	732.88	716.61
298.15 K, 6180 kPa	878.31	857.67	838.25	816.37	801.68	785.49	767.08	750.15	734.61	718.33
298.15 K, 8210 kPa	879.79	859.18	839.81	817.9	803.24	787.05	768.66	751.72	736.21	719.94
298.15 K, 10230 kPa	881.44	860.8	841.43	819.53	804.88	788.69	770.3	753.38	737.85	721.55
298.15 K, 11250 kPa	882.22	861.6	842.23	820.34	805.7	789.48	771.11	754.16	738.66	722.34
298.15 K, 12260 kPa	883.01	862.42	843.03	821.13	806.5	790.3	771.9	754.95	739.44	723.13
298.15 K, 14290 kPa	884.61	864.01	844.63	822.72	808.08	791.9	773.49	756.55	741	724.69
298.15 K, 16310 kPa	886.16	865.53	846.17	824.27	809.62	793.43	775.01	758.05	742.51	726.2
298.15 K, 18340 kPa	887.68	867.07	847.69	825.8	811.15	794.94	776.55	759.59	744.03	727.69
298.15 K, 20370 kPa	889.18	868.58	849.18	827.29	812.64	796.42	778.03	761.06	745.51	729.16
298.15 K, 22390 kPa	890.65	870.05	850.64	828.77	814.1	797.89	779.48	762.51	746.97	730.59
298.15 K, 24420 kPa	892.14	871.52	852.13	830.22	815.56	799.35	780.91	763.95	748.37	732.01
298.15 K, 26450 kPa	893.54	872.95	853.55	831.64	816.97	800.75	782.33	765.32	749.76	733.39
298.15 K, 28470 kPa	894.96	874.35	854.96	833.04	818.37	802.14	783.71	766.73	751.13	734.74
298.15 K, 29490 kPa	895.65	875.05	855.64	833.73	819.06	802.85	784.39	767.4	751.81	735.41
298.15 K, 30500 kPa	896.32	875.72	856.33	834.42	819.73	803.52	785.07	768.07	752.47	736.07
298.15 K, 32530 kPa	897.71	877.11	857.7	835.79	821.11	804.86	786.42	769.4	753.8	737.38
298.15 K, 34550 kPa	899.05	878.46	859.03	837.12	822.43	806.19	787.72	770.72	755.08	738.69
298.15 K, 36580 kPa	900.38	879.77	860.35	838.43	823.74	807.48	789.01	772.01	756.36	739.94
298.15 K, 38600 kPa	901.69	881.06	861.67	839.72	825.03	808.77	790.32	773.27	757.63	741.21
298.15 K, 39620 kPa	902.33	881.71	862.31	840.38	825.68	809.4	790.96	773.9	758.25	741.83
308.15 K, 100 kPa	863.99	843.29	824.06	802.22	787.75	771.63	753.33	736.52	721.15	705.03
308.15 K, 2130 kPa	865.56	845	825.77	803.94	789.46	773.39	755.1	738.36	722.94	706.75
308.15 K, 4150 kPa	867.35	846.81	827.59	805.76	791.31	775.22	756.95	740.19	724.76	708.57
308.15 K, 6180 kPa	869.15	848.61	829.39	807.57	793.1	777.03	758.74	742	726.58	710.37
308.15 K, 8210 kPa	870.9	850.37	831.16	809.34	794.85	778.81	760.51	743.77	728.34	712.11
308.15 K, 10230 kPa	872.61	852.08	832.88	811.05	796.6	780.52	762.22	745.47	730.04	713.8
308.15 K, 11250 kPa	873.47	852.95	833.74	811.91	797.46	781.38	763.1	746.33	730.91	714.66
308.15 K, 12260 kPa	874.3	853.78	834.58	812.74	798.31	782.22	763.93	747.17	731.72	715.48
308.15 K, 14290 kPa	875.96	855.47	836.25	814.43	799.98	783.88	765.62	748.84	733.37	717.14
308.15 K, 16310 kPa	877.59	857.09	837.88	816.06	801.61	785.51	767.22	750.45	735	718.74
308.15 K, 18340 kPa	879.2	858.68	839.49	817.66	803.22	787.12	768.81	752.06	736.58	720.34
308.15 K, 20370 kPa	880.78	860.28	841.08	819.25	804.79	788.69	770.37	753.6	738.13	721.86
308.15 K, 22390 kPa	882.35	861.81	842.63	820.79	806.33	790.24	771.9	755.13	739.65	723.39
308.15 K, 24420 kPa	883.86	863.33	844.15	822.3	807.85	791.75	773.44	756.65	741.13	724.85
308.15 K, 26450 kPa	885.35	864.85	845.66	823.79	809.33	793.23	774.9	758.1	742.61	726.31
308.15 K, 28470 kPa	886.84	866.32	847.13	825.28	810.81	794.7	776.37	759.57	744.06	727.75
308.15 K, 29490 kPa	887.56	867.04	847.84	825.98	811.52	795.4	777.07	760.27	744.75	728.43
308.15 K, 30500 kPa	888.21	867.77	848.57	826.72	812.26	796.13	777.79	760.96	745.47	729.14
308.15 K, 32530 kPa	889.73	869.2	850.02	828.15	813.68	797.54	779.17	762.38	746.85	730.54
308.15 K, 34550 kPa	891.14	870.61	851.41	829.56	815.08	798.95	780.59	763.77	748.23	731.86
308.15 K, 36580 kPa	892.52	872.01	852.79	830.94	816.46	800.32	781.95	765.13	749.58	733.19
308.15 K, 38600 kPa	893.9	873.39	854.16	832.28	817.83	801.66	783.3	766.43	750.88	734.53
308.15 K, 39620 kPa	894.55	874.04	854.82	832.94	818.49	802.33	783.95	767.08	751.54	–
